In patent US5885968A, “Triantennary cluster glycosides, their preparation and use” (Rijksuniversiteit te Leiden, priority 1992, dated 1999):
pKi: −log10 of the molar value. Where two headings read alike, the source gives them in different places.

Experiments:
[1] = target: T1, asialoglycoprotein receptor (Rattus norvegicus, UniProt P02706+P08290); test: Inhibition of binding of radiolabeled asialoorosomucoid to rat liver parenchymal cells; settings: for pKi / Ki: rat liver parenchymal cells, labeled asialoorosomucoid; for pKi: read-out: Asialoglycoprotein receptor Ki; for Ki: read-out: Asialoglycoprotein receptor pKi (± S.E.) (converted)
T1 construct: parenchymal cells isolated from rat liver; endogenous in cells; host or cells: primary parenchymal cells (hepatocytes) isolated from rat liver
T1 sequence (P02706 1-284): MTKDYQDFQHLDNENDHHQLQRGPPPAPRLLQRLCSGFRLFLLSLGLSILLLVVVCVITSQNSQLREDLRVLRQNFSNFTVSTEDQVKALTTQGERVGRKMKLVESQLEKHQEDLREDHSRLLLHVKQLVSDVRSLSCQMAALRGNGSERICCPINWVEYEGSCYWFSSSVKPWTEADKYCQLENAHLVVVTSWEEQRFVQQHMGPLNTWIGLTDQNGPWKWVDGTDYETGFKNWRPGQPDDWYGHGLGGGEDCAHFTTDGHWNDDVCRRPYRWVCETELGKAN
T1 sequence (P08290 1-301): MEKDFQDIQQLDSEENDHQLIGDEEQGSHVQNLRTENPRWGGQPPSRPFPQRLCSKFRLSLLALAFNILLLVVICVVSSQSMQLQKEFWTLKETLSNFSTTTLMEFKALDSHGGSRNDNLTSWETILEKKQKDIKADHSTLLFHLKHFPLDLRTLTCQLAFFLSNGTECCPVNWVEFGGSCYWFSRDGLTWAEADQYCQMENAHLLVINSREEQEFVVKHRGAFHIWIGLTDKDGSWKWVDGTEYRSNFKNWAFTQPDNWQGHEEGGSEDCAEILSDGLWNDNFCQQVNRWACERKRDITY
Text: The affinity of cluster glycosides can be verified by means of binding studies. In them, it is considered to what extent the compounds are capable of inhibiting the binding of the radioisotopically labeled asioloorosomucoid to parenchymal cells isolated from rat liver according to a previously described procedure (ref 17). The sugar concentration at which inhibition arises is a measure of the affinity.

[2] = target: T2, Fuc/Gal receptor on the hepatic Kupffer cell (Rattus norvegicus, UniProt P10716); test: Inhibition of 125I-Lac-LDL binding to Kupffer cells; settings: 4° C., 2 h; for pKi: read-out: Fuc-Gal receptor Ki; for Ki: read-out: Fuc-Gal receptor pKi (converted)
T2 construct: Kupffer cells in DMEM medium, supplemented with 2% BSA and 2 mM CaCl2; endogenous in cells; host or cells: primary Kupffer cells of liver
T2 sequence (P10716 1-550): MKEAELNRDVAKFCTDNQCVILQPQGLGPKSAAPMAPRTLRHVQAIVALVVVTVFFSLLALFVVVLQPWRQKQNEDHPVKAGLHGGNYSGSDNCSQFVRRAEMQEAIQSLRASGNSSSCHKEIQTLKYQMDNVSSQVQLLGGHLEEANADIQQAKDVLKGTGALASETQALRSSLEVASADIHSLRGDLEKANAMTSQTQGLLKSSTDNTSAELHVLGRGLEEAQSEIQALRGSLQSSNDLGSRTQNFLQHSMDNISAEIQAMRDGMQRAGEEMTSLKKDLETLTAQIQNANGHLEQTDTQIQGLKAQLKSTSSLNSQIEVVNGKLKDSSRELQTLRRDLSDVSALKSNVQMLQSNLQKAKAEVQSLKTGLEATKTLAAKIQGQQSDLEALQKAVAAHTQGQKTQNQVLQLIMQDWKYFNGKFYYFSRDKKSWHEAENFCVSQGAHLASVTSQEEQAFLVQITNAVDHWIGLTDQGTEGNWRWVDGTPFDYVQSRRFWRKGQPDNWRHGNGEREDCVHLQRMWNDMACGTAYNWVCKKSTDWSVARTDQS
Method: An idea of the specificity of cluster glycosides for the asialoglycoprotein receptor on the hepatic parenchymal cell can be obtained by comparing the affinity for this receptor with the affinity for the likewise galactose recognizing Fuc/Gal receptor on the hepatic Kupffer cell. […] To that end, Kupffer cells in DMEM medium, supplemented with 2% BSA and 2 mM CaCl2, are incubated at 4° C. for 2 h with 3 μg/ml ^125 I-Lac-LDL in the absence or presence of the compound, in a concentration range of 1 nM to 300 μM. After the incubation the binding of ^125 I-Lac-LDL to the Kupffer cells is determined in a manner identical to that for ^125 I-ASOR binding to liver parenchymal cells.

rats [3] = test: In vivo fate of lipoprotein (a) charged with glycolipid in rats; set-up: species or system rat; settings: rats
Text: The so prepared TG(20 Å)-chol (formula 20): [drawing 24] can also be used to direct apo(a) to the hepatic parenchymal cell. High levels of lp(a) are correlated with the occurence of coronary and vascular diseases. To date, an adequate clinical therapy to alleviate the pathogenesis is not available. To investigate whether TG(20 Å)C can be used to stimulate the hepatic uptake and processing of lp(a) this, isolated lp(a) was charged with TG(20 Å)-chol according to a procedure that is known per se and the in vivo behaviour of the particle was studied. Lp(a) (50 μg) in PBS was incubated at 20° C. for 30 min with 0, 5, 15 and 50 μg TG(20 Å) (-chol). This charge led to a changed behaviour of the apo(a) after intravenous injection into rats. This is illustrated in FIG. 8. […] On account of the high […] of TG(20 Å)-chol, very rapidly an exchange of this compound occurs between lp(a) and other lipoproteins and lipid compartments. This then leads to a stabilization of the lp(a) level in the bloodstream after a few minutes.
^125 I-Lp(a) (50 μg) was mixed with 50 μg of TG(20 Å)C or TG(4 Å)C in 500 μl PBS. After 30 min at room temperature, the mixtures were injected into rats at a dose of 50 μg of apolipoprotein/kg body weight. Ten minutes after injection, parenchymal, endothelial and Kupffer cells were isolated from the liver and counted for radioactivity. Values are expressed as 10-3.% of the injected dose per mg of cellular protein and are means of 3 experiments ± s.e.m.

[4] = cited from earlier work
rats [5] = test: Serum cholesterol lowering after intravenous injection in rats; type: in vivo, rat; settings: injection into vena penis, 0.056-0.56 mg, FIG. 3
Method: This was verified as follows. Male rats (250-300 g) were anesthetized by means of ether, whereafter 500 gl PBS, having dissolved therein 0.56 mg, 0.18 mg, 0.056 mg or 0 mg TG(20 Å)-chol (formula 20) or 0.56 mg tris-glu-chol (formula 21): [drawing 19] was injected into the vena penis. At the times indicated in FIG. 3, blood samples of 300 μl were taken by means of orbital puncture. The blood samples were centrifuged (5 min; 1500 g) and the serum was used for a cholesterol assay by means of the CHOD-PAP kit of Boehringer Mannheim. 24 Hours after injection the rat was bled. The blood was centrifuged whereafter the serum was pipeted. Then the serum was subjected to gradient density ultracentrifugation and the various lipoprotein fractions were isolated: HDL (1.21<d<1.05), LDL (1.050<d<1.019), IDL (1.019<d<1.006) and VLDL (d<1.006). Finally, the total cholesterol concentrations of these lipoprotein fractions were assayed by means of the CHOD-PAP kit.

[6] = 125I-Lp(a) 50 μg + 50 μg glycolipid, 10 min after injection, mean ± s.e.m., 3 experiments

Row | Structure (SMILES) | pKi [1] | Ki [1] [µM] | pKi [2] | Ki [2] [µM] | other results
1 | COC(=O)CCCCC(=O)NCC(=O)NC(CO[C@@H]1O[C@H](CO)[C@H](O)[C@H](O)[C@H]1O)(CO[C@@H]1O[C@H](CO)[C@H](O)[C@H](O)[C@H]1O)CO[C@@H]1O[C@H](CO)[C@H](O)[C@H](O)[C@H]1O [Compound 15a] | 3.41 | 389 | < 4.52 | > 31.6 | –
2 | COC(=O)CCCCC(=O)NCC(=O)NC(COCOCCOCCOCCOCCO[C@@H]1O[C@H](CO)[C@H](O)[C@H](O)[C@H]1O)(COCOCCOCCOCCOCCO[C@@H]1O[C@H](CO)[C@H](O)[C@H](O)[C@H]1O)COCOCCOCCOCCOCCO[C@@H]1O[C@H](CO)[C@H](O)[C@H](O)[C@H]1O [Compound 15e] | 6.70 | 0.209 | < 4.00 | > 100 | –
3 | CC(C)CCC[C@@H](C)[C@H]1CC[C@H]2[C@@H]3CC=C4C[C@@H](OC(=O)CCC(=O)NCC(=O)NC(CO[C@@H]5O[C@H](CO)[C@H](O)[C@H](O)[C@H]5O)(CO[C@@H]5O[C@H](CO)[C@H](O)[C@H](O)[C@H]5O)CO[C@@H]5O[C@H](CO)[C@H](O)[C@H](O)[C@H]5O)CC[C@]4(C)[C@H]3CC[C@]12C [TG(4 Å)C, reference compound] | – | – | – | – | Contribution to hepatic uptake of Lp(a), EC (endothelial cells) (rats [3]; [6]): 10.4 ± 3%; Contribution to hepatic uptake of Lp(a), KC (Kupffer cells) (rats [3]; [6]): 80.3 ± 3%; Liver cell type location of charged lp(a) (in words) (rats [3]): mainly located in the Kupffer cell
4 | CC(C)CCC[C@@H](C)[C@H]1CC[C@H]2[C@@H]3CC=C4C[C@@H](OC(=O)CCC(=O)NCC(=O)NC(CO[C@@H]5O[C@H](CO)[C@H](O)[C@H](O)[C@H]5O)(CO[C@@H]5O[C@H](CO)[C@H](O)[C@H](O)[C@H]5O)CO[C@@H]5O[C@H](CO)[C@H](O)[C@H](O)[C@H]5O)CC[C@]4(C)[C@H]3CC[C@]12C [tris-gal-chol] | – | – | – | – | Removal of cholesterol from the bloodstream and liver uptake [4]: capable of irreversibly removing cholesterol from the bloodstream and inducing cholesterol uptake by the liver; Potency as hypolipidemic agent ([4]; high doses necessary): low; Route of LDL removal after injection ([4]; in vivo): via the Fuc/Gal receptors on hepatic Kupffer cells
5 | CC(C)CCC[C@@H](C)[C@H]1CC[C@H]2[C@@H]3CC=C4C[C@@H](OC(=O)CCC(=O)NCC(=O)NC(CO[C@@H]5O[C@H](CO)[C@@H](O)[C@H](O)[C@H]5O)(CO[C@@H]5O[C@H](CO)[C@@H](O)[C@H](O)[C@H]5O)CO[C@@H]5O[C@H](CO)[C@@H](O)[C@H](O)[C@H]5O)CC[C@]4(C)[C@H]3CC[C@]12C [tris-glu-chol, reference compound] | – | – | – | – | Total serum cholesterol level (rats [5]): does not lead to a change in the cholesterol level

More lines, main results first:

Row | pKi [1] | Ki [1] [µM] | pKi [2] | Ki [2] [µM] | Structure (SMILES) | other results
6 | 4.72 | 19.1 | < 4.00 | > 100 | COC(=O)CCCCC(=O)NCC(=O)NC(COCOCCO[C@@H]1O[C@H](CO)[C@H](O)[C@H](O)[C@H]1O)(COCOCCO[C@@H]1O[C@H](CO)[C@H](O)[C@H](O)[C@H]1O)COCOCCO[C@@H]1O[C@H](CO)[C@H](O)[C@H](O)[C@H]1O [Compound 15b] | –
7 | 5.92 | 1.23 | < 4.00 | > 100 | COC(=O)CCCCC(=O)NCC(=O)NC(COCOCCCO[C@@H]1O[C@H](CO)[C@H](O)[C@H](O)[C@H]1O)(COCOCCCO[C@@H]1O[C@H](CO)[C@H](O)[C@H](O)[C@H]1O)COCOCCCO[C@@H]1O[C@H](CO)[C@H](O)[C@H](O)[C@H]1O [Compound 15c] | Relative affinity for the ASGPr (in words) ([1]; from Table 2): slightly higher affinity than TG(13 Å)
8 | 4.96 | 11.2 | < 4.00 | > 100 | COC(=O)CCCCC(=O)NCC(=O)NC(COCOCCOCCO[C@@H]1O[C@H](CO)[C@H](O)[C@H](O)[C@H]1O)(COCOCCOCCO[C@@H]1O[C@H](CO)[C@H](O)[C@H](O)[C@H]1O)COCOCCOCCO[C@@H]1O[C@H](CO)[C@H](O)[C@H](O)[C@H]1O [Compound 15d] | –
